For experiment [1], the system named is HCT-116 human colon carcinoma cells. Put plainly: Cytotoxic activity on culture of human colon carcinoma cells HCT-116 (Alamar Blue). The conditions noted are these: HCT-116 cells, 72 hours after addition of compounds, Alamar Blue viability. The format is cell-based. The protocol: Evaluation of Cytotoxic Activity on Culture of Human Colon Carcinoma Cells HCT-116
Human colon carcinoma cells HCT-116 were seeded onto 96-well plates in RPMI1640 culture medium with added 10% FBS and 2 mM glutamine. 24 hours after seeding, the compounds at different concentrations are added. All the compounds are diluted in DMSO such that the final concentrations on the cultures is no greater than 0.5%. 72 hours after addition of the compounds, cell viability is measured by means of the dye Alamar Blue. The result is expressed as percent survival of the treated relative to the control, treated with carrier alone.
A general note: Resazurin is reduced to fluorescent resorufin, in cell work by metabolically active cells.

In experiment [2] the test system is histone deacetylase (HDAC), HeLa nuclear extract. Briefly: Deacetylase activity on nuclear extract of HeLa cells (Fluor de Lys kit). Format: biochemical, human. The conditions noted are these: 0.1 μM compound, percent inhibition relative to control without inhibitor. The protocol: The activity of the compounds as histone deacetylase (HDAC) inhibitors was measured using an in vitro acetylation assay. The compounds were then evaluated as inhibitors of proliferation of human tumor cell cultures.
Deacetylase Activity on Nuclear Extract of Hela Cells (Human Cervical Cancer Cell)
The assay (Fluor de Lys™ kit, BioMol) is divided into two steps: in the first step the substrate which comprises an acetylated lysine residue is reacted with the nuclear extract (HeLa) containing the enzymatic activity in the presence and absence of inhibitors. In the second step a fluorogenic reagent is added which highlights the deacetylated residues. A reduction in fluorescence is obtained where there has been inhibition of the deacetylase activity.

SMILES strings stand for the structures.

In the case of `O=C(CCCCCN1C(=O)c2ccccc2S(=O)(=O)c2ccccc21)NO` [Example 8, 6-(5,5,11-Trioxo-5,11-dihydro-5λ^6-dibenzo[b,f][1,4]thiazepin-10-yl)-hexanoic acid hydroxyamide], in experiment [1], the IC50 (commonly the point on the concentration scale where inhibition reaches its midpoint) is 105 nM. Besides, the “% inhib at 0.1 μM” value in experiment [2] turned out to be 73%.

In experiment [1], `COc1ccc2c(c1)N(CCCCCC(=O)NO)C(=O)c1ccccc1S2(=O)=O` [Example 9, 6-(8-Methoxy-5,5,11-trioxo-5,11-dihydro-5λ^6-dibenzo[b,f][1,4]thiazepin-10-yl)-hexanoic acid hydroxyamide] gave an IC50 of 40 nM. Further, the “% inhib at 0.1 μM” value in experiment [2] worked out at 83%.

Regarding `O=C(CCCCCN1C(=O)c2ccccc2S(=O)(=O)c2ccc(Cl)cc21)NO` [Example 10, 6-(8-Chloro-5,5,11-trioxo-5,11-dihydro-5λ^6-dibenzo[b,f][1,4]thiazepin-10-yl)-hexanoic acid hydroxyamide], half-maximal inhibition in experiment [1] (IC50) required 30 nM. For the same compound, in experiment [2], the “% inhib at 0.1 μM” value is 77%.

For the compound `COc1ccc2c(c1)N(CCCCCC(=O)NO)C(=O)c1ccccc1[S+]2[O-]` (stereo not shown) [Example 11, 6-(8-Methoxy-5,11-dioxo-5,11-dihydro-5λ^4-dibenzo[b,f][1,4]thiazepin-10-yl)-hexanoic acid hydroxyamide], in experiment [1], the IC50 was 50 nM. In addition, the “% inhib at 0.1 μM” value in experiment [2] is reported as 73%.

For `O=C(CCCCCN1C(=O)c2ccccc2Oc2ccccc21)NO` [Example 12, 6-(11-Oxo-11H-dibenzo[b,f][1,4]oxazepin-10-yl)-hexanoic acid hydroxyamide], inhibition in experiment [1] was half-maximal at 640 nM (IC50). In experiment [2], the “% inhib at 0.1 μM” value is listed as 66%.

Consider `COc1ccc2c(c1)N(CCCCCC(=O)NO)C(=O)c1ccccc1O2` [Example 13, 6-(8-Methoxy-11-oxo-11H-dibenzo[b,f][1,4]oxazepin-10-yl)-hexanoic acid hydroxyamide], for which the IC50 in experiment [1] was 310 nM. Further, in experiment [2], the “% inhib at 0.1 μM” value came to 73%.

In turn, `O=C(CCCCCN1C(=O)c2ccccc2Oc2ccc(Cl)cc21)NO` [Example 14, 6-(8-Chloro-11-oxo-11H-dibenzo[b,f][1,4]oxazepin-10-yl)-hexanoic acid hydroxyamide] came in with an IC50 in experiment [1] of 200 nM. The “% inhib at 0.1 μM” value in experiment [2] worked out at 65%.

`O=C(CCCCCCN1C(=O)c2ccccc2Oc2ccccc21)NO` [Example 15, 7-(11-Oxo-11H-dibenzo[b,f][1,4]oxazepin-10-yl)-heptanoic acid hydroxyamide] yielded an IC50 in experiment [1] of 200 nM. The “% inhib at 0.1 μM” value in experiment [2] is listed as 62%.

`O=C(CCCCCN1C(=O)c2cscc2Nc2cc(Cl)c(Cl)cc21)NO` [Example 17, 6-(6,7-Dichloro-10-oxo-4H,10H-2-thia-4,9-diaza-benzo[f]azulen-9-yl)-hexanoic acid hydroxyamide] came in with an IC50 in experiment [1] of 800 nM. That is a sub-micromolar value.

In experiment [1], `CN(C)c1ccc2c(c1)S(=O)(=O)N(CCCCCC(=O)NO)c1ccccc1N2` [Example 20, 6-(8-Dimethylamino-10,10-dioxo-5,10-dihydro-10λ^6-thia-5,11-diaza-dibenzo[a,d]cyclohepten-11-yl)-hexanoic acid hydroxyamide] yielded an IC50 of 390 nM. In addition, the “% inhib at 0.1 μM” value in experiment [2] amounted to 40%.

Consider `COc1ccc2c(c1)Nc1ccccc1S(=O)(=O)N2CCCCCC(=O)NO` [Example 21, 6-(3-Methoxy-10,10-dioxo-5,10-dihydro-10λ^6-thia-5,11-diaza-dibenzo[a,d]cyclohepten-11-yl)-hexanoic acid hydroxyamide], for which the IC50 in experiment [1] came out at 290 nM.

`O=C(CCCCCN1c2ccccc2Oc2ccccc2S1(=O)=O)NO` [Example 23, 6-(10,10-Dioxo-10H-5-oxa-10λ^6-thia-11-aza-dibenzo[a,d]cyclohepten-11-yl)-hexanoic acid hydroxyamide] yielded an IC50 in experiment [1] of 190 nM. For the same compound, the “% inhib at 0.1 μM” value in experiment [2] came out at 48%.

The compound `O=C(CCCCCN1c2cc(F)ccc2Nc2ccccc2S1(=O)=O)NO` [Example 25, 6-(2-Fluoro-10,10-dioxo-5,10-dihydro-10λ^6-thia-5,11-diaza-dibenzo[a,d]cyclohepten-11-yl)-hexanoic acid hydroxyamide] returned an IC50 in experiment [1] of 1500 nM. The “% inhib at 0.1 μM” value in experiment [2] is listed as 42%.

`CN(C)c1ccc2c(c1)S(=O)(=O)N(CCCCCC(=O)NO)c1ccc(O)cc1N2` [Example 26, 6-(8-Dimethylamino-3-hydroxy-10,10-dioxo-5,10-dihydro-10λ^6-thia-5,11-diaza-dibenzo[a,d]cyclohepten-11-yl)-hexanoic acid hydroxyamide] returned an IC50 in experiment [1] of 1000 nM. In experiment [2], the “% inhib at 0.1 μM” value was found to be 66%.

`COc1ccc2c(c1)Nc1ccc(N(C)C)cc1S(=O)(=O)N2CCCCCC(=O)NO` [Example 27, 6-(8-Dimethylamino-3-methoxy-10,10-dioxo-5,10-dihydro-10λ^6-thia-5,11-diaza-dibenzo[a,d]cyclohepten-11-yl)-hexanoic acid hydroxyamide] registered an IC50 in experiment [1] of 400 nM. The “% inhib at 0.1 μM” value in experiment [2] was found to be 63%.

In experiment [1], `COc1ccc2c(c1)N(CCCCCC(=O)NO)S(=O)(=O)c1ccccc1N2` [Example 29, 6-(2-Methoxy-10,10-dioxo-5,10-dihydro-10λ^6-thia-5,11-diaza-dibenzo[a,d]cyclohepten-11-yl)-hexanoic acid hydroxyamide] registered an IC50 of 900 nM. For the same compound, the “% inhib at 0.1 μM” value in experiment [2] was 54%.

As for `COc1ccc2c(c1)Nc1ccccc1N(CCCCCC(=O)NO)S2(=O)=O` [Example 30, 6-(7-Methoxy-10,10-dioxo-5,10-dihydro-10λ^6-thia-5,11-diaza-dibenzo[a,d]cyclohepten-11-yl)-hexanoic acid hydroxyamide], the IC50 in experiment [1] amounted to 390 nM. The “% inhib at 0.1 μM” value in experiment [2] is given as 65%.

Regarding `Nc1cccc2c1Nc1ccccc1S(=O)(=O)N2CCCCCC(=O)NO` [Example 32, 6-(4-Amino-10,10-dioxo-5,10-dihydro-10λ^6-thia-5,11-diaza-dibenzo[a,d]cyclohepten-11-yl)-hexanoic acid hydroxyamide], in experiment [1], the half-inhibitory concentration (IC50) was determined as 2000 nM. In addition, the “% inhib at 0.1 μM” value in experiment [2] is recorded as 47%.

The record behind these values is patent US20080275023A1, “N-Hydroxyamides Omege-Substituted with Tricyclic Groups as Histone Deacetylase Inhibitors, Their Preparation and Use in Pharmaceutical Formulations” (priority 2005, published 2008).
